Experimental findings from patent EP1254251B1, “NEUROSTEROIDS AS MARKERS FOR ALZHEIMER'S DISEASE” (Georgetown University, priority 2000, dated 2001) are described below.

The subject of one experiment is MGM-1 human glioma cells. Put plainly: ROS measurement by 2,7-DCF fluorescence. The format is cell-based. The settings on record: MGM-1, 50 mM Aβ, vs control, p < 0.01. How it is done: β-Amyloid Regulation of the Alternative Pathway: MGM-1 cells were plated on 96 well (~5,000 cells/well, for ROS measurements) or 24 well (~15,000 cells/well, for D measurements) plates (Corning Costar, Acton, MA). At the same time, 1 mg Ab (Ab (1-42), AnaSpec Inc., San Jose, CA) was dissolved in 0.5 ml serum-free media and incubated at 4C for aggregation. 24 hours later, cells were incubated in DMEM with 10% fetal bovine serum and […] or […] and 10 mM Vitamin E (Sigma, St. Louis, MO). Control samples were incubated in DMEM with 10% FBS. Cells were incubated at 37C and 6% CO2 for at least 12 hours and processed for ROS generation (see below) or D synthesis as described above for the alternative experiments.
Treatment media was removed and the cells were washed with PBS. The fluorescent probe 2,7- dichlorofluorescin diacetate (2,7-DCF, Molecular Probes, Inc., Eugene, OR) was used to measure levels of oxidative stress (48). Cells were incubated with […] 2,7-DCF, fluorescence was measured at 485nm/535nm using the Victor^2 Multilabel Counter (EG&G Wallac, Gaithersburg, MD) and values of cellular fluorescence were obtained.

A further experiment relates to MGM-1. Put plainly: Alternative pathway D synthesis in cells treated with FeSO4, or with Ab with or without Vitamin E (TLC, RIA). In kind it is cell-based, human. The conditions noted are these: MGM-1, 50 mM Aβ, vs control, p < 0.01. How it is done: Alternative Pathway: To determine the amount ofD synthesized by the alternative pathway cells were treated as previously described. (15). In brief, cells were washed and oligodendrocytes and astrocytes were incubated with increasing concentrations of FeSO4 in serum free media, with and without SU 10603 (10 mM); neurons were incubated in serum free media containing 5 mM P plus FeSO4 with and without 10 mM SU 10603. After two hours, cells and media were homogenized and extracted as described above. Extracts were run on C 18 TLC plates (Whatman, Clifton, NJ) with a mobile phase of 95% methanol (v/v); radiolabeled standards for P, progesterone, and D were run on each plate, and appropriate steroid fractions were collected for each sample. TLC fractions were extracted with 2 ml diethyl ether (Fluka, New York) and evaporated. TLC extracts were assayed by specific radioimmunoassay (RIA). […]
RIA using antibodies specific for each steroid (ICN Pharmaceuticals, Costa Mesa, CA Mesa) was used to measure P, progesterone and D levels. The data were analyzed using the IBM-PC RIA Data Reduction Program (version 4.1) from Jaffe and Associates (Silver Spring, MD). Levels of β-amyloid species in AD and control brain samples were analyzed using 4G8 (Senetex PLC, Napa, CA), a monoclonal antibody to β-amyloid peptide that recognizes amino acids 17-24. […]

“Ab: Ab (1-42), AnaSpec Inc.; β-amyloid, a component of Alzheimer's disease plaques”: the “2,7-DCF fluorescence (ROS)” value with MGM-1 human glioma cells was “significant increase”. For the same substance, in the experiment with MGM-1, the D levels entry is reported as “increased D levels significantly”.
